For data set [1], the target named is T1, LYPLA2 (Mus musculus, UniProt Q9WTL7).
T1 construct: a complex proteome endogenously expressing LYPLA1/2 was incubated with test compound; from tissue; host or cells: mouse brain, membrane fraction
In words: Gel-based competitive ABPP in vitro, mouse brain membrane proteome. The data set is classed as biochemical. Particulars: 30 min, one replicate; for inhibition at 0.1 µM: 0.1 μM compound, read-out: LYPLA2 % INH 0.1 μM; for inhibition at 1 µM: 1 μM compound, read-out: LYPLA2 % INH 1 μM; for inhibition at 10 µM: 10 μM compound, read-out: LYPLA2 % INH 10 μM; for inhibition at 100 µM: 100 μM compound, read-out: LYPLA2 % INH 100 μM. In short, it runs like this: (§1)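 Mouse brain membrane proteome (1 mg/mL in DPBS) was treated with compound (0.1-100 μM) for 30 min at 37 °C, then labeled with FP-Rh (2 μM final, 30 min, 25 °C). Bands were resolved by SDS-PAGE and scanned in-gel, with inhibition taken from band optical density versus DMSO. Targets counted as active or anti-targets at ≥50% inhibition.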

Data set [2] has as its target T2, LYPLA1 (Mus musculus, UniProt P97823).
T2 construct: a complex proteome endogenously expressing LYPLA1/2 was incubated with test compound; from tissue; host or cells: mouse brain, membrane fraction
The description is as above. The data set is classed as biochemical. To be noted: 30 min, one replicate; for inhibition at 0.1 µM: 0.1 μM compound, read-out: LYPLA1 % INH 0.1 μM; for inhibition at 1 µM: 1 μM compound, read-out: LYPLA1 % INH 1 μM; for inhibition at 10 µM: 10 μM compound, read-out: LYPLA1 % INH 10 μM; for inhibition at 100 µM: 100 μM compound, read-out: LYPLA1 % INH 100 μM. The method in brief:
as §1

In data set [3] the test system is human SHs. As to the kind of experiment: ABPP-SILAC analysis to identify SH targets of Compound 5. The data set is classed as biochemical. From the text: Compound 5 was selected for analysis by mass spectrometry (MS)-based ABPP methods to assess the range of SHs targeted by N-Hydroxy bicyclic hydantoin carbamates.
Data set [4] relates to FP-sensitive SHs in the mouse brain membrane proteome. In words: Gel-based competitive ABPP in vitro, mouse brain membrane proteome, anti-targets. To be noted: for Anti-target(s) 0.1 μM: SHs with at least 50% inhibition at 0.1 μM compound; for Anti-target(s) 1 μM: SHs with at least 50% inhibition at 1 μM compound; for Anti-target(s) 10 μM: SHs with at least 50% inhibition at 10 μM compound; for Anti-target(s) 100 μM: SHs with at least 50% inhibition at 100 μM compound. In kind it is biochemical. In short, it runs like this: as §1

Data set [5] has as its target T3, human LYPLA1 (Homo sapiens, UniProt O75608).
T3 construct: endogenous human LYPLA1/2 in a HeLa soluble proteome; endogenous in cells; host or cells: HeLa (soluble proteome in vitro; cultured cells in situ)
In words: IC50 by gel-based competitive ABPP in vitro, soluble HeLa cell proteome. In kind it is biochemical. To be noted: human LYPLA isoform, three replicates; Table 2 prints no unit, nM; read-out: LYPLA1 IC50. As to the method:
(§2) Assay Overview: The purpose of this assay was to determine IC50 values of powder samples of test compounds for enzyme of interest activity, and anti-targets in a complex proteomic lysate using a gel-based competitive ABPP assay. In this assay, a complex proteome was incubated with test compound followed by reaction with FP-Rh and SDS-PAGE analysis as described above.
(§3) Protocol Summary: Soluble HeLa cell proteome (50 μL reaction volume, 1 mg/mL in DPBS) or mouse brain membrane proteome (50 μL reaction volume, 1 mg/mL in DPBS) was treated with varying concentrations of test compound (1 μL of a 50× stock in DMSO) for 30 minutes at 37° C. FP-Rh (1 μL of 50× stock in DMSO) was added to a final concentration of 2 μM. The reaction was incubated for 30 minutes at 25° C., quenched with 16 μL 4×SDS-PAGE loading buffer (reducing), separated by SDS-PAGE and visualized by in-gel fluorescent scanning. The percentage activity remaining was determined by measuring the integrated optical density of the enzymes of interest, and anti-target bands relative to a DMSO-only (no compound) control. IC50 values were determined from dose-response curves from three replicates at each inhibitor concentration: 1, 10, 100, 1000, 10000 nM and 0.01, 0.1, 1, 10, 100, 1000, 10000, 50000, and 100000 nM.

For data set [6], the target named is T4, human LYPLA2 (Homo sapiens, UniProt O95372).
T4 construct: endogenous human LYPLA1/2 in a HeLa soluble proteome; endogenous in cells; host or cells: HeLa (soluble proteome in vitro; cultured cells in situ)
The data set is described as above. The data set is classed as biochemical. To be noted: human LYPLA isoform, three replicates; Table 2 prints no unit, nM; read-out: LYPLA2 IC50. The protocol:
as §2, §3

Data set [7] in a line: Analysis of cytotoxicity (WST-1). In kind it is cell-based, human. Particulars: human, HeLa cells; HeLa, 48 h, WST-1. As to the method:
Assay Overview: The purpose of this assay was to determine cytotoxicity of powder samples of test compounds. In this assay, HeLa cells in either serum-free medium or medium containing fetal calf serum (FCS) were incubated with test compounds, followed by determination of cell viability. The assay utilized the WST-1 substrate, which was converted into colorimetric formazan dye by the metabolic activity of viable cells. The amount of formed formazan directly correlated to the number of metabolically active cells in the culture.
Protocol Summary: This assay was started by seeding HeLa cells in DMEM medium supplemented with 10% FCS and 1× Pen-Strep-Glutamine in a 96-well plate. Cells were incubated at 37° C. in a humidified incubator until 80% confluent (24 hours). Medium was removed, and 100 μL of fresh medium (serum-free or supplemented with 10% FCS), pre-mixed with DMSO or test compound, was added to each well. Cells were incubated for 48 hours at 37° C. in a humidified incubator and cell viability was determined by the WST-1 assay (Roche) according to manufacturer instructions. CC50 values were determined from dose-response curves from three replicates at each inhibitor concentration (10, 100, 1000, 10000, 100000 nM), compared to six replicates of cells treated with DMSO only.

Consider two molecules from patent US9981972B2, “N-hydroxy bicyclic hydantoin carbamates as tools for identification of serine hydrolase targets” (ABIDE THERAPEUTICS, INC., priority 2014, dated 2018).

“Also recorded” adds a separate entry of the source.

T1 sequence (Q9WTL7 whole entry): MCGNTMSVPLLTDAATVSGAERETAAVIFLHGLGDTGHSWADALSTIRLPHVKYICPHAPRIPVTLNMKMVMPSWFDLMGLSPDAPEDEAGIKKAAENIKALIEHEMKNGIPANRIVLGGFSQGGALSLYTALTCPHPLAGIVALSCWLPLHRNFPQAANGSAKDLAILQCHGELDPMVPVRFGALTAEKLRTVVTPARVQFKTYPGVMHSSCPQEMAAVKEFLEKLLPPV
T2 sequence (P97823 whole entry): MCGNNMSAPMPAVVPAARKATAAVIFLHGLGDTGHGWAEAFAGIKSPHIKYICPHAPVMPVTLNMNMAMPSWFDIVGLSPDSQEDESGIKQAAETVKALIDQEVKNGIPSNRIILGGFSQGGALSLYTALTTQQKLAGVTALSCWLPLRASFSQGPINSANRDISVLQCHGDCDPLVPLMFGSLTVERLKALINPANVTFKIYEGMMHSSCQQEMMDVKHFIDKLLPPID
T4 sequence (O95372 whole entry): as the sequence (Q9WTL7 whole entry) above, with N154A, T193S counted along it
T3 sequence (O75608 whole entry): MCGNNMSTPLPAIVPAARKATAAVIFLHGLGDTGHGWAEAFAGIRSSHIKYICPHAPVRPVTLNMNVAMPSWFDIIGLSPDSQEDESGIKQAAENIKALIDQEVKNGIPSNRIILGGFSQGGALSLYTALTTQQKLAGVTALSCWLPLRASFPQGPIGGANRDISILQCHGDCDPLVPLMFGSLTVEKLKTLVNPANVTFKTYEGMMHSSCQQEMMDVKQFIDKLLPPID

On to `CC(C)(C)OC(=O)N1CCN2C(=O)N(OC(=O)N3CCC(CCc4ccc(Cl)cc4)CC3)C(=O)C2C1` (stereo not shown) [Compound 5, tert-butyl 2-(4-(4-chlorophenethyl)piperidine-1-carbonyloxy)-1,3-dioxohexahydroimidazo[1,5-a]pyrazine-7(1H)-carboxylate], for which, in data set [1], the inhibition at 0.1 µM worked out at 50%, the inhibition at 1 µM came to 80%, the inhibition at 10 µM was 100% and the inhibition at 100 µM worked out at 100%. In addition, in data set [2], the inhibition at 0.1 µM turned out to be 50%, the inhibition at 1 µM was 80%, the inhibition at 10 µM came to 100% and the inhibition at 100 µM came to 100%. For the same molecule, in data set [3], the “SHs inhibited by Compound 5 (three-fold or greater decrease in signal)” value is “ABHD6 and MGLL and ABHD4 and ABHD12 and PLA2G15 and PNPLA4”. In addition, in data set [4], the “Anti-target(s) 0.1 μM” value is “ABHD6”, the “Anti-target(s) 1 μM” value was “FAAH,; also recorded: ABHD6”, the “Anti-target(s) 10 μM” value was “FAAH,; also recorded: ABHD12,; also recorded: ABHD6” and the “Anti-target(s) 100 μM” value is given as “FAAH,; also recorded: ABHD12,; also recorded: MAGL,; also recorded: ABHD6”.
Take `O=C(ON1C(=O)C2CN(C(=O)N3CCCCC3)CCN2C1=O)N1CCC(CCc2ccc(Cl)cc2)CC1` (stereo not shown) [Compound 2, 1,3-dioxo-7-(piperidine-1-carbonyl)hexahydroimidazo[1,5-a]pyrazin-2(3H)-yl 4-(4-chlorophenethyl)piperidine-1-carboxylate]: in data set [1], the inhibition at 0.1 µM amounted to 50%, the inhibition at 1 µM turned out to be 100%, the inhibition at 10 µM turned out to be 100% and the inhibition at 100 µM was determined as 100%. Besides, in data set [2], the inhibition at 0.1 µM was 50%, the inhibition at 1 µM is 100%, the inhibition at 10 µM was determined as 100% and the inhibition at 100 µM amounted to 100%. In addition, in data set [5], the IC50 came out at 154 nM. Moreover, the 50% inhibitory concentration (IC50) in data set [6] worked out at 258 nM. In data set [7], this molecule yielded a CC50 at 48 h of at least 10000 nM. Also, in data set [4], the “Anti-target(s) 0.1 μM” value is “ABHD6”, the “Anti-target(s) 1 μM” value was “FAAH,; also recorded: ABHD6”, the “Anti-target(s) 10 μM” value was “FAAH,; also recorded: ABHD12,; also recorded: ABHD4,; also recorded: MAGL,; also recorded: ABHD6” and the “Anti-target(s) 100 μM” value is “FAAH,; also recorded: ABHD12,; also recorded: ABHD4,; also recorded: MAGL,; also recorded: ABHD6”.

In general, IC50 refers to the concentration needed to halve the response being measured. Broadly, the CC50 is the concentration at which the toxic effect on the cells reaches its halfway point. Low readings indicate harm at low concentration, high ones better tolerance by the cells.
